The EC50 is the concentration that produces a half-maximal response.

The record followed here is patent US11976064B2, “Toll-like receptor agonists” (Pfizer Inc., priority 2019, dated 2024).

For this assay, the system named is peripheral blood mononuclear cells (PBMCs). In words: IFNα release assay from peripheral blood mononuclear cells (HTRF). In kind it is cell-based. The settings on record: freshly isolated human PBMC, IFNα by HTRF, geometric mean when tested more than once. As to the method: The Examples described were tested for biological activity in functional cellular assays using HEK293 cells stably overexpressing human TLR7 or TLR8. The assays tested for the ability of each Example to stimulate secretion of interferon alpha (IFNα) in human primary blood mono nuclear cells (PBMC).
To determine the ability of each Example to induce the release of interferon alpha (IFNα) from freshly isolated peripheral blood mononuclear cells (PBMCs), a Homogeneous Time-Resolved Fluorescence (HTRF) assay was utilized. Human whole blood was collected from healthy donors via vein puncture in accordance with Pfizer protocols (Protocol No. GOHW RDP-01), approved by the Shulman Institutional Review Board. 50 ml of human venous blood sample from individual donors was heparinized by addition to a conical tube containing 714 units of Heparin Sodium Injection MDV (Fresenius Kabi, cat #70041) followed by gentle inversion of the tube several times. Blood was then transferred to a flask, the conical tube was rinsed with 40 ml of PBS containing 2 mM EDTA (PBS-EDTA), and the rinse was added to the blood flask with gently mixing. 30 ml of the diluted blood was added to 3 separate histopaque tubes (Sigma, cat #A0561), applying directly to the frit. Histopaque tubes were then spun for 15 min at 1000×g in a tabletop centrifuge. Following density separation, excess upper phase of plasma was aspirated to within ˜5 ml above the interphase and remaining plasma along with the cloudy interphase containing PBMCs were gently decanted into a new conical tube. 15 ml of PBS-EDTA was added to the histopaque tube and swirled gently to remove remaining PBMCs that adhered to the tube wall and this wash was added to the existing PBMCs in the tube. The volume of the tube was brought to 40 ml with PBS-EDTA and tubes were spun at 250×g for 12 minutes at room temperature. After aspiration of the supernatant, the pellet was gently resuspended with 10 ml of PBS-EDTA and centrifuged again at 250×g for 12 minutes. The resulting supernatant was decanted, and the pellet was resuspended in 20 ml of ACK lysing buffer (ThermoFisher, cat #A10492-01) followed by incubation at room temperature for 5 minutes. The volume of each tube was brought to 50 ml with the addition of PBS-EDTA and tubes were spun at 177×g for 12 minutes at room temperature. The PBMC pellet was again resuspended in 10 ml of PBS without EDTA and tubes were spun for a final time at 177×g for 10 minutes. The supernatant was decanted and PBMCs were resuspended in Assay Media (RPMI base media with 10% FBS heat inactivated, 2 mM Glutamax and Penicillin/Streptomycin).
Each Example was prepared for the assay using 11-point half log serial dilutions from a 2.5 mM DMSO stock solution and 400 nl was spotted into 384 well Viewplate (Perkin Elmer, cat #6007480). Positive and negative controls (previously described) were also spotted within the assay plate and were used to determine percent effect during the analysis process. PBMCs were counted and plated at a density of 100,000 cells/[…]/well; plates were covered with a prewet microclime lid to prevent evaporation and incubated for 24 hrs at 37° C. in a 5% CO2 atmosphere. At the end of the incubation, the microclime lid was removed and the plates were spun at 1000 rpm for 5 minutes. 16 μl of conditioned media from the cell plate was transferred into a separate 384 well low-volume plate (Greiner One, 784080). IFNα levels were quantitated using an HTRF® kit (Cisbio, cat #62HIFNAPEG) according to the manufacturer's instructions. The kit supplies two different specific antibodies, one labelled with D2 (acceptor) and the other labelled with cryptate (donor), and detection buffer. The antibody stocks were diluted […] in detection buffer. For one 384 well plate, 62.5 μl of D2 antibody stock and 62.5 μl of cryptate antibody stock was added to 2.375 ml of detection buffer and mixed well. […]

As to `CCOCc1nc2c(N)nc(C)c(C)c2n1CC(CC)(CO)CO` [Example 9, 2-((4-amino-2-(ethoxymethyl)-6,7-dimethyl-1H-imidazo[4,5-c]pyridin-1-yl)methyl)-2-ethylpropane-1,3-diol], the EC50 (Homo sapiens, PBMC, 24 h) was found to be 2 nM. Still for that read-out and setting: in the case of `CCCCc1nc2c(N)nc3ccccc3c2n1CC(C)(CO)CO` [Example 10, 2-((4-amino-2-butyl-1H-imidazo[4,5-c]quinolin-1-yl)methyl)-2-methylpropane-1,3-diol] it was 1 nM; in that of `CCCCc1nc2c(N)nc3c(c2n1CC(C)(CO)CO)CCC3` [Example 14, 2-((4-amino-2-butyl-7,8-dihydrocyclopenta[b]imidazo[4,5-d]pyridin-1(6H)-yl)methyl)-2-methylpropane-1,3-diol], 7 nM; in that of `CCc1nc2c(N)nc3ccccc3c2n1CC(C)(CO)CO` [Example 15, 2-((4-amino-2-ethyl-1H-imidazo[4,5-c]quinolin-1-yl)methyl)-2-methylpropane-1,3-diol], 12 nM. Same read-out and setting: to `CCCCc1nc2c(N)nc3c(c2n1CC(C)(CO)CO)CCCC3` [Example 13, 2-((4-amino-2-butyl-6,7,8,9-tetrahydro-1H-imidazo[4,5-c]quinolin-1-yl)methyl)-2-methylpropane-1,3-diol] belongs 0.4 nM.

Consider `Cc1nc(N)c2nc(CC(F)(F)F)n(CC(C)(CO)CO)c2c1C` [Example 8, 2-((4-amino-6,7-dimethyl-2-(2,2,2-trifluoroethyl)-1H-imidazo[4,5-c]pyridin-1-yl)methyl)-2-methylpropane-1,3-diol], for which, where the note is “Homo sapiens, PBMC, 24 h”, it took 48 nM to reach a half-maximal effect (EC50). The same measure, in the same setting: to `CCOCc1nc2c(N)nc3ccccc3c2n1CC(C)(CO)CO` [Example 3, 2-((4-amino-2-(ethoxymethyl)-1H-imidazo[4,5-c]quinolin-1-yl)methyl)-2-methylpropane-1,3-diol] belongs 7 nM. On the same count and under the same terms, to `CCOCc1nc2c(N)nc(C)c(C)c2n1CC(C)(CO)CO` [Example 2, 2-((4-amino-2-(ethoxymethyl)-6,7-dimethyl-1H-imidazo[4,5-c]pyridin-1-yl)methyl)-2-methylpropane-1,3-diol] belongs 19 nM. Same read-out and setting: to `CCCc1nc2c(N)nc3ccccc3c2n1CC(C)(CO)CO` [Example 16, 2-((4-amino-2-propyl-1H-imidazo[4,5-c]quinolin-1-yl)methyl)-2-methylpropane-1,3-diol] belongs 11 nM; to `CCOCc1nc2c(N)nc(C)c(C)c2n1CC(CO)CO` [Example 1, 2-((4-amino-2-(ethoxymethyl)-6,7-dimethyl-1H-imidazo[4,5-c]pyridin-1-yl)methyl)propane-1,3-diol], 99 nM. Turning to `CCOCc1nc2c(N)nc(C)c(C)c2n1CC(C)(CO)COC` (single isomer, unassigned) [Example 7, 3-(4-amino-2-(ethoxymethyl)-6,7-dimethyl-1H-imidazo[4,5-c]pyridin-1-yl)-2-(methoxymethyl)-2-methylpropan-1-ol], the response (24 hrs) was half-maximal at 198 nM (EC50).

`CCOCc1nc2c(N)nc(C)c(C)c2n1CC(C)(CO)COC` (single isomer, unassigned) [Example 6, 3-(4-amino-2-(ethoxymethyl)-6,7-dimethyl-1H-imidazo[4,5-c]pyridin-1-yl)-2-(methoxymethyl)-2-methylpropan-1-ol] yielded an EC50 (24 hrs) of 22 nM.
